Assay results published in PubChem BioAssay (NCI).
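Here, GI50 denotes the concentration required for 50% inhibition of growth. The concentration for full growth arrest is given as TGI.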

Columns and labels:
Assay in all cases: NCI-60 cell line screen, 384-well format
MDA-MB-435 melanoma = test system: MDA-MB-435 melanoma
TK-10 renal = test system: TK-10 renal
CAKI-1 renal = test system: CAKI-1 renal
ACHN renal = test system: ACHN renal
UACC-257 melanoma = test system: UACC-257 melanoma
A498 renal = test system: A498 renal
IGROV1 ovarian = test system: IGROV1 ovarian
EKVX NSCLC = test system: EKVX NSCLC
NCI-H23 lung = test system: NCI-H23 lung
SF-539 CNS = test system: SF-539 CNS
HCT-116 colon = test system: HCT-116 colon
HOP-62 NSCLC = test system: HOP-62 NSCLC
SK-MEL-28 melanoma = test system: SK-MEL-28 melanoma
COLO 205 colon = test system: COLO 205 colon
NCI-H226 lung = test system: NCI-H226 lung
PC-3 prostate = test system: PC-3 prostate
KM12 colon = test system: KM12 colon
NCI-H522 lung = test system: NCI-H522 lung
NCI-H322M lung = test system: NCI-H322M lung
SF-295 CNS = test system: SF-295 CNS
SN12C renal = test system: SN12C renal
HCT-15 colon = test system: HCT-15 colon
HS 578T breast = test system: HS 578T breast
MDA-MB-468 breast = test system: MDA-MB-468 breast
OVCAR-5 ovarian = test system: OVCAR-5 ovarian
MOLT-4 leukemia = test system: MOLT-4 leukemia
SK-OV-3 ovarian = test system: SK-OV-3 ovarian
OVCAR-3 ovarian = test system: OVCAR-3 ovarian
MALME-3M melanoma = test system: MALME-3M melanoma
DU-145 prostate = test system: DU-145 prostate
UACC-62 melanoma = test system: UACC-62 melanoma
SR leukemia = test system: SR leukemia
MDA-MB-231 breast = test system: MDA-MB-231 breast
HCC-2998 colon = test system: HCC-2998 colon
BT-549 breast = test system: BT-549 breast
M14 melanoma = test system: M14 melanoma
NCI/ADR-RES ovarian = test system: NCI/ADR-RES ovarian
RPMI-8226 leukemia = test system: RPMI-8226 leukemia
NCI-H460 NSCLC = test system: NCI-H460 NSCLC
MCF7 breast = test system: MCF7 breast
SK-MEL-5 melanoma = test system: SK-MEL-5 melanoma
SF-268 CNS = test system: SF-268 CNS
SNB-75 CNS = test system: SNB-75 CNS
OVCAR-4 ovarian = test system: OVCAR-4 ovarian
LOX IMVI melanoma = test system: LOX IMVI melanoma
U251 glioblastoma = test system: U251 glioblastoma
HL-60(TB) leukemia = test system: HL-60(TB) leukemia
A549 NSCLC = test system: A549 NSCLC

`CC(C)(C)c1cnc(CSc2cnc(NC(=O)C3CCNCC3)s2)o1` showed a GI50 (MDA-MB-435 melanoma) of 113 nM, a TGI (MDA-MB-435 melanoma) of 322 nM and a GI50 (TK-10 renal) of 232 nM. For the same compound, the TGI (TK-10 renal) was 799 nM, the GI50 (CAKI-1 renal) was 394 nM and the TGI (CAKI-1 renal) was > 100000 nM. The GI50 (ACHN renal) was 950 nM, the TGI (ACHN renal) was 34100 nM and the GI50 (UACC-257 melanoma) was 166 nM. It also gave a TGI (UACC-257 melanoma) of 350 nM, a GI50 (A498 renal) of 240 nM and a TGI (A498 renal) of 627 nM. The GI50 (IGROV1 ovarian) was 53.1 nM, the TGI (IGROV1 ovarian) was 566 nM and the GI50 (EKVX NSCLC) was 204 nM. The TGI (EKVX NSCLC) was 1070 nM, the GI50 (NCI-H23 lung) was 78.3 nM and the TGI (NCI-H23 lung) was 212 nM. The GI50 (SF-539 CNS) was 35.4 nM, the TGI (SF-539 CNS) was 134 nM and the GI50 (HCT-116 colon) was 32.3 nM. For the same compound, the TGI (HCT-116 colon) was > 100000 nM, the GI50 (HOP-62 NSCLC) was 66 nM and the TGI (HOP-62 NSCLC) was 330 nM. It also gave a GI50 (SK-MEL-28 melanoma) of 120 nM, a TGI (SK-MEL-28 melanoma) of 285 nM and a GI50 (COLO 205 colon) of 25 nM. It also gave a TGI (COLO 205 colon) of 62.8 nM, a GI50 (NCI-H226 lung) of 188 nM and a TGI (NCI-H226 lung) of 680 nM. It also gave a GI50 (PC-3 prostate) of 70.9 nM, a TGI (PC-3 prostate) of 397 nM and a GI50 (KM12 colon) of 35 nM. For the same compound, the TGI (KM12 colon) was 13700 nM, the GI50 (NCI-H522 lung) was 147 nM and the TGI (NCI-H522 lung) was 306 nM. For the same compound, the GI50 (NCI-H322M lung) was 38.1 nM, the TGI (NCI-H322M lung) was 159 nM and the GI50 (SF-295 CNS) was 373 nM. It also gave a TGI (SF-295 CNS) of 27100 nM, a GI50 (SN12C renal) of 38.4 nM and a TGI (SN12C renal) of 186 nM. For the same compound, the GI50 (HCT-15 colon) was 2450 nM, the TGI (HCT-15 colon) was > 100000 nM and the GI50 (HS 578T breast) was 136 nM. The TGI (HS 578T breast) was 431 nM, the GI50 (MDA-MB-468 breast) was 50.8 nM and the TGI (MDA-MB-468 breast) was 176 nM. For the same compound, the GI50 (OVCAR-5 ovarian) was 25.2 nM, the TGI (OVCAR-5 ovarian) was 59.4 nM and the GI50 (MOLT-4 leukemia) was 37.4 nM. For the same compound, the TGI (MOLT-4 leukemia) was 104 nM, the GI50 (SK-OV-3 ovarian) was 192 nM and the TGI (SK-OV-3 ovarian) was > 100000 nM. The GI50 (OVCAR-3 ovarian) was 46.4 nM, the TGI (OVCAR-3 ovarian) was 221 nM and the GI50 (MALME-3M melanoma) was 123 nM. For the same compound, the TGI (MALME-3M melanoma) was 264 nM, the GI50 (DU-145 prostate) was 42 nM and the TGI (DU-145 prostate) was 299 nM. For the same compound, the GI50 (UACC-62 melanoma) was 47.3 nM, the TGI (UACC-62 melanoma) was 191 nM and the GI50 (SR leukemia) was 12.1 nM. The TGI (SR leukemia) was 24.6 nM, the GI50 (MDA-MB-231 breast) was 62.4 nM and the TGI (MDA-MB-231 breast) was > 100000 nM. The GI50 (HCC-2998 colon) was 51.8 nM, the TGI (HCC-2998 colon) was 208 nM and the GI50 (BT-549 breast) was 114 nM. For the same compound, the TGI (BT-549 breast) was 277 nM, the GI50 (M14 melanoma) was 166 nM and the TGI (M14 melanoma) was 425 nM. For the same compound, the GI50 (NCI/ADR-RES ovarian) was 26300 nM, the TGI (NCI/ADR-RES ovarian) was > 100000 nM and the GI50 (RPMI-8226 leukemia) was 27.3 nM. It also gave a TGI (RPMI-8226 leukemia) of 70.4 nM, a GI50 (NCI-H460 NSCLC) of 68.6 nM and a TGI (NCI-H460 NSCLC) of 256 nM. The GI50 (MCF7 breast) was 29.8 nM, the TGI (MCF7 breast) was 16900 nM and the GI50 (SK-MEL-5 melanoma) was 109 nM. It also gave a TGI (SK-MEL-5 melanoma) of 249 nM, a GI50 (SF-268 CNS) of 41 nM and a TGI (SF-268 CNS) of 264 nM. For the same compound, the GI50 (SNB-75 CNS) was 124 nM, the TGI (SNB-75 CNS) was 278 nM and the GI50 (OVCAR-4 ovarian) was 63.7 nM. The TGI (OVCAR-4 ovarian) was 368 nM, the GI50 (LOX IMVI melanoma) was 24.1 nM and the TGI (LOX IMVI melanoma) was 59.9 nM. The GI50 (U251 glioblastoma) was 107 nM, the TGI (U251 glioblastoma) was 547 nM and the GI50 (HL-60(TB) leukemia) was 14.3 nM. The TGI (HL-60(TB) leukemia) was 27.5 nM, the GI50 (A549 NSCLC) was 101 nM and the TGI (A549 NSCLC) was > 100000 nM.
